From PubChem BioAssay AID588571 (Sanford-Burnham Center for Chemical Genomics, 2011)
Active and inactive are the calls of the source.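 How the source made its calls: active means mean IC50 at or below 20 µM; inactive means the rest.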

Test system: CHO-CHOP cells viability, ATPlite luminescence, 6 h
Assay: cytotoxicity in CHO-CHOP reporter cells, SAR follow-up, cytotoxicity control for UPR adaptive arm activator project, cell-based, 6 h exposure, ATPlite luminescence (AID 588571)

Row | Compound | IC50
1 | Cc1nc(Nc2nc(-c3ccccc3)cc(=O)[nH]2)nc2ccccc12 | 60.1 µM (inactive)
2 | O=C(Nc1ccc(Br)c(C(F)(F)F)c1)c1cc(-c2ccncc2)nc2ccccc12 | > 80 µM (inactive)
3 | O=C(Nc1ccc(Cl)cc1)c1cc(-c2ccncc2)nc2ccccc12 | 75.4 µM (inactive)
4 | O=C(Nc1ccc(C(F)(F)F)cc1)c1cc(-c2ccncc2)nc2ccccc12 | 70.4 µM (inactive)
5 | Cc1cc(Br)cc(NC(=O)c2cc(-c3ccncc3)nc3ccccc23)c1 | > 80 µM (inactive)
6 | Cc1ccc(NC(=O)c2cc(-c3ccncc3)nc3ccccc23)cc1 | > 80 µM (inactive)
7 | O=C(Nc1ccc(F)cc1)c1cc(-c2ccncc2)nc2ccccc12 | > 80 µM (inactive)
